Measured values reported in patent US20260241026A1, “THERAPEUTIC METHOD FOR LOW-DRUG-SENSITIVITY CANCERS BY ADMINISTRATION OF ANTI-MUC1 ANTIBODY-DRUG CONJUGATE” (priority 2023, published 2026).

Assays:
[1] = system: bladder cancer PDX model (NIBIO-K071); assay: Antitumor test in bladder cancer patient-derived xenograft model NIBIO-K071; format: in vivo, female nude mice
Excerpt: NIBIO-[…] was obtained as a bladder cancer patient-derived xenograft model (PDX model) from the National Institute of Biomedical Innovation. A frozen tumor section of NIBIO-[…] was thawed and subcutaneously transplanted to 4- to 6-week old female NSG mice (NOD. Cg-Prkdc Il2rg<tm1Wjl>/SzJ: purchased from Charles River Laboratories Japan, Inc.) using a trocar. Grown tumor was collected, cut into small pieces, and transplanted again to female NSG mice or female nude mice (CAnN. Cg-Foxn1nu/CrlCrlj: purchased from Charles River Laboratories Japan, Inc.) using a trocar, followed by extended growth. TA-MUC1-, Nectin-4-, and TROP2-positive findings were confirmed in the tumor of this model by immunohistochemical staining (IHC). An estimated tumor volume (ETV) was calculated as described below. Estimated tumor volume (volume,mm^3)=Major axis (mm)×Minor axis (mm)^2/2 The female nude mice with transplanted NIBIO-[…] were grouped 25 days after transplantation when their average tumor volume became about 200 mm^3. […] ABS buffer was administered to a Vehicle administration group. Six mice per group were used in all the groups. After initial administration, body weights and tumor sizes were measured twice a week, and estimated tumor volumes were calculated.

[2] = system: lung cancer PDX model (NIBIO-NS1); assay: Antitumor test in lung cancer patient-derived xenograft model NIBIO-NS1; format: in vivo, female nude mice
Excerpt: NIBIO-NS1 was obtained as a lung cancer PDX model from the National Institute of Biomedical Innovation. A frozen tumor section of NIBIO-NS1 was thawed and subcutaneously transplanted to 5-week old female NSG mice (NOD. Cg-Prkdc Il2rg<tm1Wjl>/SzJ: purchased from Jackson Laboratory Japan, Inc.) using a trocar. Grown tumor was collected, cut into small pieces, and transplanted again to female nude mice (CAnN. Cg-Foxn1nu/CrlCrlj: purchased from Jackson Laboratory Japan, Inc.) using a trocar, followed by extended growth.
The female nude mice with transplanted NIBIO-NS1 were grouped 10 days after transplantation when their average tumor volume became about 157 mm^3. […] Six mice per group were used in groups 1 and 2, and 12 mice were used in group 3.

[3] = system: human breast cancer cell line HCC70; assay: Antitumor test in model with transplanted breast cancer cell line HCC70 (Example 3); format: in vivo, female nude mouse
Method: The mice were grouped 18 days after transplantation when their average tumor volume became about 165 mm^3. […] ABS buffer was administered to a Vehicle administration group. Six mice per group were used in all the groups.

[4] = 10 mg/kg, QW × two doses (Days 0, 7)
[5] = Day 21, 10 mg/kg, QW × 2, intravenous

## enfortumab vedotin [Nectin-4-MMAE ADC, reference compound]
[1]; 3 mg/kg, QW × three doses (Days 0, 7, 14)
  tumor regression: did not reach tumor regression
[1]; Day 21, 3 mg/kg, QW × 3, intravenous
  ETV (mm^3) Mean: 772 mm^3

## datopotamab deruxtecan [TROP2-DXd ADC, reference compound]
[2]; 10 mg/kg on Day 11 to tumors pre-treated with TROP2-DXd ADC, up to Day 31 (TA-MUC1-DXd ADC) or Day 21 (TROP2-DXd ADC)
  tumor course after regrouping of the TROP2-DXd ADC administration group: grew continuously
[2]; Day 11, 10 mg/kg on Day 0, NIBIO-NS1
  tumor regression effect: no tumor regression
[2]; Day 11, 10 mg/kg, Day 0, intravenous, NIBIO-NS1
  ETV (mm^3) Mean: 453 mm^3

## sacituzumab govitecan [TROP2-SN38 ADC, reference compound]
[3]; [4]
  tumor regression: no tumor regression
[3]; [5]
  ETV (mm^3) Mean: 361 mm^3
[1]; [4]
  tumor regression: did not reach tumor regression
[1]; [5]
  ETV (mm^3) Mean: 383 mm^3
